In PubChem BioAssay AID248 (DTP/NCI, 2004):
Where “and” joins values, the source holds several entries; their conditions need not be identical. Identical values can stand only once. Toxic doses and inconclusive results are not listed.

System: L1210 leukemia ip in BDF1 mice, survival T/C
Experiment: NCI In Vivo Anticancer Drug Screen. Data for tumor model L1210 Leukemia (intraperitoneal) in B6D2F1 (BDF1) mice
Conditions: endpoint: mean survival time, higher = longer survival
Outline: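 Ratio derived from survival: compound-dosed mice over vehicle-dosed mice, all bearing a transplantable tumor.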

[1] = dose: 100.0 mg/kg/injection, schedule: Q04DX003 (ip), vehicle: Klucel (hydroxypropylcellulose) (HPC)
[2] = dose: 100.0 mg/kg/injection, schedule: Q04DX002 (ip), vehicle: Klucel (hydroxypropylcellulose) (HPC)
[3] = dose: 200.0 mg/kg/injection, schedule: Q04DX002 (ip), vehicle: Klucel (hydroxypropylcellulose) (HPC)
[4] = dose: 100.0 mg/kg/injection, schedule: Q01DX009 (ip), vehicle: saline with Tween-80
[5] = dose: 200.0 mg/kg/injection, schedule: Q01DX009 (ip), vehicle: saline with Tween-80
[6] = dose: 400.0 mg/kg/injection, schedule: Q01DX009 (ip), vehicle: saline with Tween-80
[7] = dose: 50.0 mg/kg/injection, schedule: Q01DX001 (ip), vehicle: saline
[8] = dose: 100.0 mg/kg/injection, schedule: Q01DX001 (ip), vehicle: saline
[9] = dose: 200.0 mg/kg/injection, schedule: Q01DX001 (ip), vehicle: saline
[10] = dose: 400.0 mg/kg/injection, schedule: Q01DX001 (ip), vehicle: saline
[11] = dose: 100.0 mg/kg/injection, schedule: Q01DX001 (ip), vehicle: carboxymethylcellulose (CMC)
[12] = dose: 100.0 mg/kg/injection, schedule: Q01DX009 (ip), vehicle: Klucel (hydroxypropylcellulose) (HPC)
[13] = dose: 200.0 mg/kg/injection, schedule: Q01DX001 (ip), vehicle: carboxymethylcellulose (CMC)
[14] = dose: 200.0 mg/kg/injection, schedule: Q01DX009 (ip), vehicle: Klucel (hydroxypropylcellulose) (HPC)
[15] = dose: 400.0 mg/kg/injection, schedule: Q01DX001 (ip), vehicle: carboxymethylcellulose (CMC)
[16] = dose: 100.0 mg/kg/injection, schedule: Q04DX003 (ip), vehicle: saline
[17] = dose: 400.0 mg/kg/injection, schedule: Q04DX003 (ip), vehicle: saline
[18] = dose: 200.0 mg/kg/injection, schedule: Q04DX003 (ip), vehicle: saline
[19] = dose: 100.0 mg/kg/injection, schedule: Q04DX003 (ip), vehicle: saline with Tween-80
[20] = dose: 200.0 mg/kg/injection, schedule: Q04DX003 (ip), vehicle: saline with Tween-80
[21] = dose: 400.0 mg/kg/injection, schedule: Q04DX003 (ip), vehicle: saline with Tween-80
[22] = dose: 50.0 mg/kg/injection, schedule: Q01DX009 (ip), vehicle: saline

## C=CCc1cc(CNC(C)C)c(O)c(OC)c1
dose: 25.0 mg/kg/injection, schedule: Q04DX003 (ip), vehicle: Klucel (hydroxypropylcellulose) (HPC)
  T/C: 96 % of control
dose: 50.0 mg/kg/injection, schedule: Q04DX003 (ip), vehicle: Klucel (hydroxypropylcellulose) (HPC)
  T/C: 88 % of control
[1]
  T/C: 101 % of control and 92 % of control

## Cc1cccc(C2=N/C(=C\c3ccc4c(c3)OC(O)O4)C(=O)O2)c1 (configuration not stated)
[2]
  T/C: 97 % of control
[3]
  T/C: 104 % of control
dose: 400.0 mg/kg/injection, schedule: Q04DX002 (ip), vehicle: Klucel (hydroxypropylcellulose) (HPC)
  T/C: 104 % of control

## ON=C(c1ccc(Cl)cc1)c1ccc(Cl)cc1
[4]
  T/C: 95 % of control
[5]
  T/C: 93 % of control
[6]
  T/C: 93 % of control

## CC(=O)C(c1ccc(N(C)C)cc1)c1ccc(N(C)C)cc1
[7]
  T/C: 101 % of control
[8]
  T/C: 101 % of control
[9]
  T/C: 101 % of control
[10]
  T/C: 101 % of control

## COc1cc(/C=C2/N=C(C)OC2=O)cc(Cl)c1OC
[8]
  T/C: 87 % of control
[9]
  T/C: 90 % of control
[10]
  T/C: 87 % of control

## CCc1ccc(NC(=O)NCCCl)cc1
dose: 50.0 mg/kg/injection, schedule: Q01DX009 (ip), vehicle: Klucel (hydroxypropylcellulose) (HPC)
  T/C: 89 % of control
[11]
  T/C: 87 % of control
[12]
  T/C: 89 % of control
[2]
  T/C: 105 % of control
[13]
  T/C: 106 % of control
[14]
  T/C: 92 % of control
[3]
  T/C: 113 % of control
[15]
  T/C: 106 % of control

## NCc1cc(=O)[nH]c(=O)[nH]1
[16]
  T/C: 104 % of control
[17]
  T/C: 89 % of control

## c1cnc2c3c(ccc2c1)CN(C1CCCCC1)CO3
dose: 100.0 mg/kg/injection, schedule: Q04DX003 (ip), vehicle: saline sonified
  T/C: 94 % of control
dose: 200.0 mg/kg/injection, schedule: Q04DX003 (ip), vehicle: saline sonified
  T/C: 91 % of control

## Cc1ccc(S(=O)(=O)OCCN(CCOS(=O)(=O)c2ccc(C)cc2)c2ccc(C=O)cc2)cc1
dose: 50.0 mg/kg/injection, schedule: Q01DX001 (ip), vehicle: carboxymethylcellulose (CMC)
  T/C: 114 % of control
[11]
  T/C: 102 % of control and 120 % of control
dose: 175.0 mg/kg/injection, schedule: Q01DX001 (ip), vehicle: carboxymethylcellulose (CMC)
  T/C: 121 % of control
[13]
  T/C: 98 % of control and 122 % of control
dose: 265.0 mg/kg/injection, schedule: Q01DX001 (ip), vehicle: carboxymethylcellulose (CMC)
  T/C: 116 % of control
dose: 600.0 mg/kg/injection, schedule: Q01DX001 (ip), vehicle: carboxymethylcellulose (CMC)
  T/C: 115 % of control

## CC1(C(=O)O)C2C=CC(C2)C1C(=O)O (configuration not stated)
[16]
  T/C: 96 % of control
[18]
  T/C: 94 % of control
[17]
  T/C: 102 % of control

## C=C1OC(=O)OC1(C)CC(OC)OC (configuration not stated)
[4]
  T/C: 101 % of control
[19]
  T/C: 94 % of control
[5]
  T/C: 95 % of control
[20]
  T/C: 92 % of control
[6]
  T/C: 98 % of control
[21]
  T/C: 92 % of control

## COC(=O)c1ccc(Cn2ccc(=O)[nH]c2=O)cc1
dose: 50.0 mg/kg/injection, schedule: Q04DX003 (ip), vehicle: saline with Tween-80
  T/C: 92 % of control
[19]
  T/C: 95 % of control
[20]
  T/C: 89 % of control

## Clc1cc(/C=C/c2ccccc2)c2ccccc2n1
[8]
  T/C: 105 % of control
[9]
  T/C: 105 % of control
[10]
  T/C: 100 % of control

## O=C(NCCCl)Nc1c2ccccc2nc2ccccc12
[12]
  T/C: 97 % of control
[1]
  T/C: 103 % of control
[14]
  T/C: 89 % of control
dose: 200.0 mg/kg/injection, schedule: Q04DX003 (ip), vehicle: Klucel (hydroxypropylcellulose) (HPC)
  T/C: 103 % of control
dose: 400.0 mg/kg/injection, schedule: Q04DX003 (ip), vehicle: Klucel (hydroxypropylcellulose) (HPC)
  T/C: 104 % of control

## CCCC(C)NNC(C)CCC (configuration not stated)
dose: 75.0 mg/kg/injection, schedule: Q01DX001 (ip), vehicle: acetone
  T/C: 96 % of control
dose: 75.0 mg/kg/injection, schedule: Q01DX001 (ip), vehicle: other
  T/C: 114 % of control
dose: 150.0 mg/kg/injection, schedule: Q01DX001 (ip), vehicle: acetone
  T/C: 101 % of control

## CCOC(=O)CCCc1cccc(OC)c1OC
dose: 100.0 mg/kg/injection, schedule: Q01DX001 (ip), vehicle: saline with Tween-80
  T/C: 91 % of control
dose: 200.0 mg/kg/injection, schedule: Q01DX001 (ip), vehicle: saline with Tween-80
  T/C: 91 % of control
dose: 400.0 mg/kg/injection, schedule: Q01DX001 (ip), vehicle: saline with Tween-80
  T/C: 98 % of control

## CN(C)c1ccc(NC2=NCCO2)cc1
dose: 12.5 mg/kg/injection, schedule: Q04DX003 (ip), vehicle: saline
  T/C: 95 % of control
dose: 25.0 mg/kg/injection, schedule: Q01DX009 (ip), vehicle: saline
  T/C: 104 % of control
dose: 25.0 mg/kg/injection, schedule: Q04DX003 (ip), vehicle: saline
  T/C: 102 % of control
[22]
  T/C: 95 % of control
dose: 50.0 mg/kg/injection, schedule: Q04DX003 (ip), vehicle: saline
  T/C: 98 % of control
[16]
  T/C: 97 % of control
[18]
  T/C: 87 % of control

## COc1cc(C)n2nnnc2n1
dose: 25.0 mg/kg/injection, schedule: Q01DX001 (ip), vehicle: saline
  T/C: 91 % of control
[7]
  T/C: 96 % of control
[8]
  T/C: 96 % of control

## Cc1ccc(CC2CC(=O)c3ccccc3C2=O)cc1 (configuration not stated)
[19]
  T/C: 91 % of control
[20]
  T/C: 91 % of control
[21]
  T/C: 89 % of control

## COc1ccccc1C(=Nc1ccccc1)N(O)c1ccccc1
dose: 2.5 mg/kg/injection, schedule: Q01DX009 (ip), vehicle: saline with Tween-80
  T/C: 93 % of control
dose: 5.0 mg/kg/injection, schedule: Q01DX009 (ip), vehicle: saline with Tween-80
  T/C: 103 % of control

## Clc1cc(Cl)c2nc(-c3ccc(Cl)c(Cl)c3)cc(C3CO3)c2c1 (configuration not stated)
[8]
  T/C: 94 % of control
[9]
  T/C: 105 % of control
[10]
  T/C: 100 % of control

## COc1ccc(OC)c(C(=O)CC2OCCO2)c1
[8]
  T/C: 95 % of control
[9]
  T/C: 95 % of control
[10]
  T/C: 105 % of control

## O=C(O)c1cc(N=Nc2ccccc2)ccc1O
dose: 50.0 mg/kg/injection, schedule: Q01DX009 (ip), vehicle: saline with Tween-80
  T/C: 96 % of control
dose: 50.0 mg/kg/injection, schedule: Q04DX003 (ip), vehicle: other
  T/C: 93 % of control
dose: 100.0 mg/kg/injection, schedule: Q01DX001 (ip), vehicle: other
  T/C: 101 % of control
[4]
  T/C: 94 % of control
dose: 100.0 mg/kg/injection, schedule: Q04DX003 (ip), vehicle: other
  T/C: 93 % of control
[16]
  T/C: 96 % of control
dose: 200.0 mg/kg/injection, schedule: Q01DX001 (ip), vehicle: other
  T/C: 107 % of control
dose: 200.0 mg/kg/injection, schedule: Q04DX003 (ip), vehicle: other
  T/C: 98 % of control
[18]
  T/C: 87 % of control

## Nc1ccc2c(c1)C(=O)c1cc(N)c(Br)cc1-2
[11]
  T/C: 93 % of control
[13]
  T/C: 95 % of control
[15]
  T/C: 98 % of control

## CCc1cccc[n+]1Cc1ccccc1
[22]
  T/C: 90 % of control

## CN(C(=O)NCCCl)C1CCCCC1
dose: 75.0 mg/kg/injection, schedule: Q01DX001 (ip), vehicle: carboxymethylcellulose (CMC)
  T/C: 106 % of control

## CNC(=O)NCc1ccc(Cl)cc1
[19]
  T/C: 105 % of control
[20]
  T/C: 98 % of control
[21]
  T/C: 107 % of control

## O=NN(CCF)C(=O)NCCCl
dose: 9.0 mg/kg/injection, schedule: Q01DX001 (ip), vehicle: Klucel (hydroxypropylcellulose) (HPC)
  T/C: 185 % of control and 220 % of control
dose: 14.0 mg/kg/injection, schedule: Q01DX001 (ip), vehicle: Klucel (hydroxypropylcellulose) (HPC)
  T/C: 352 % of control and 355 % of control
dose: 21.0 mg/kg/injection, schedule: Q01DX001 (ip), vehicle: Klucel (hydroxypropylcellulose) (HPC)
  T/C: 419 % of control and 564 % of control
dose: 32.0 mg/kg/injection, schedule: Q01DX001 (ip), vehicle: Klucel (hydroxypropylcellulose) (HPC)
  T/C: 746 % of control
